In PubChem BioAssay AID179 (DTP/NCI, 2004):
pEC50, pIC50: −log10 of the molar value. Several values for one entry are separate records, joined by “and”; a condition that tells them apart may be missing. Identical values can stand only once. Activity calls are given as the source filed them.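 The calls were made as follows: active = compounds giving half or more protection of infected cells from virus-caused growth loss, again on retest; inactive = the rest.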

Test system: CEM cells HIV-1 protection, formazan growth assay
Experiment: NCI AIDS Antiviral Assay
Conditions: for pIC50: measured here: growth of uninfected CEM cells
How it was run: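 Protection of CEM cells against HIV-1 was scored from cell growth (soluble formazan) across five concentrations, with parallel uninfected cells. Lack of protection may reflect toxicity.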

SMILES | pEC50 | pIC50 | outcome
S=c1[nH]c2ccccc2c(=S)n1CN1CCCCC1 | < 3.70 | 3.96 | –
O=C(NCCc1c[nH]c2ccccc12)C1CC1 | < 3.70 | 3.96 | –
CC(C)OC(=O)c1ccc(NCC2=CC(=O)C=CC2=O)cc1 | < 3.70 | 5.11 | –
COC1(c2ccccc2)Oc2ccccc2C(=O)C1(O)C[N+](=O)[O-] (centres undefined) | < 3.70 | 4.81 | –
CC(=O)Nc1ccc(-c2nnc(SCC(=O)Nc3cccc(C)c3)o2)cc1 | < 4.17 | 4.93 | –
Cc1sc2[nH]c(=O)oc(=O)c2c1C | < 3.70 | 4.52 | –
CCC[CH2][Sn]([Cl])([CH2]CCC)[CH2]CCC | – | – | inactive
CC(C)OP(=O)(OC(C)C)C(C(F)(F)F)C(F)(F)F | < 3.70 | < 3.70 | –
CC(/C=N/N=C(N)N)=N\N=C(N)N | < 3.01 | 5.56 and 6.29 | –
COC/C=C\[C@]1(O)CCCC[C@@H]1CC(OC)OC | < 3.70 | 4.51 | –
O=c1[nH]c(N/N=C\C(=N/Nc2nc3ccccc3c(=O)[nH]2)C(O)C(O)C(O)CO)nc2ccccc12 (centres undefined) | < 3.70 | < 3.70 | –
Cn1c(O)c(C=Nc2ccc(Cl)cc2Cl)c(=O)n(C)c1=O | < 3.70 | < 3.70 | –
Clc1ncnc2c1ncn2CCCCCCCCCCCCn1cnc2c(Cl)ncnc21 | – | – | inactive
O=C1OC2C=CCC1C2 (centres undefined) | < 3.70 | < 3.70 | –
CCNc1ncnc2c1ncn2C1OC(CO)CC1F (centres undefined) | < 3.65 | < 3.65 | –
CC1=NC(C(=O)O)Cc2c1[nH]c1ccccc21 (centres undefined) | – | – | inactive
CN1C(=O)C(N=Nc2ccc([N+](=O)[O-])cc2)SC1=S (centres undefined) | < 4.00 | 4.97 and < 4.90 | –
O=C(c1ccc(OC(=O)c2ccccc2O)cc1)c1ccc(OC(=O)c2ccccc2O)cc1 | – | – | inactive
C[C@@H]1C[C@H]2[C@@H]3CCC4=CC(=O)C=C[C@]4(C)[C@@]3(F)[C@@H](O)C[C@]2(C)C1=O | – | – | inactive
N=c1c2ccccc2nc2oc3ccc(Cl)cc3n12 | < 3.70 | 3.99 | –
O=C1C=C(Nc2ccccc2C(=O)CC(=O)C(=O)Nc2ccc(Cl)cc2)c2ccccc2C1=O | < 4.40 | 5.66 | –
CCCCCCCC[N+](C)(C)Cc1ccc(C[N+](C)(C)CCCCCCCC)cc1 | – | – | inactive
Cc1ccc(C(=O)Nc2ccc(S(=O)(=O)O)c3cc(S(=O)(=O)O)cc(S(=O)(=O)O)c23)cc1NC(=O)c1cccc(NC(=O)Nc2cccc(C(=O)Nc3cc(C(=O)Nc4ccc(S(=O)(=O)O)c5cc(S(=O)(=O)O)cc(S(=O)(=O)O)c45)ccc3C)c2)c1 | 4.46 | 3.76 | –

SMILES | pEC50 | pIC50 | outcome
C=CC[P+](CC=C)(c1ccccc1)c1ccccc1 | < 3.70 | 5.72 | –
Cc1ccc(C2OC(=O)c3c2ccc2ccccc32)cc1 (centres undefined) | < 4.45 | < 4.45 | –
O=C(O)c1cc(O)c2c(c1)Cc1cccc(O)c1C2=O | < 3.70 | 4.54 | –
CC(=O)O[C@@H]1C(C2CCCCC2)C=[N+]([O-])O[C@@H]1OC1CCCC1(c1ccccc1)c1ccccc1 (some centres undefined) | < 3.70 | 5.77 | –
CC(=O)c1ccc(-c2oc(-c3ccccc3)cc2-c2ccc3c(c2)OCO3)s1 | < 3.70 | 4.64 | –
O=C1NCN(c2ccccc2)C12CCN(CCCSc1ccc(F)cc1)CC2 | < 3.70 | 4.74 | –
O=[N+]([O-])c1cc(C(F)(F)F)cc2n[se]nc12 | – | – | inactive
CCOC(=O)c1c[nH]cc1-c1cn(S(=O)(=O)c2ccccc2)cc1C | < 3.70 | 4.30 | –
Nc1ncnc2c1ncn2[C@@H]1C[C@H]1CO | < 3.70 | < 3.70 | –
O=C(NC(Nc1ccc(F)cc1)(C(F)(F)F)C(F)(F)F)C(C(F)(F)F)C(F)(F)F | – | – | inactive
N#Cc1c(N)nc2c(c(-c3ccc(Cl)cc3)nn2-c2ccccc2)c1C#N | < 3.70 | < 3.70 | –
Cc1ncc([N+](=O)[O-])n1CCN(C)CCCCn1ccnc1[N+](=O)[O-] | < 3.70 | < 3.70 | –
CCOC(=O)/C(=C\c1ccc(C)o1)P(=O)(OCC)OCC | < 3.10 | < 4.00 | –
c1cc2nnnn2nc1N1CCCC1 | < 3.70 | < 3.70 | –
Brc1cc2c(cc1C1SCCS1)OCO2 | < 3.97 | 4.22 | –
COC(=O)c1ccccc1/C=C1/Cc2ccccc2C1=O | < 3.70 | < 3.70 | –
CCCCCCCCCCN(CCCCCCCCCC)CC(=O)Nc1ccc(S(=O)(=O)c2ccc(NC(=O)CN(CCCCCCCCCC)CCCCCCCCCC)cc2)cc1 | < 4.30 | 5.52 | –
CCOC(=O)CCC(NC(=O)c1ccc(Oc2nc3c(N)cc(C(F)(F)F)cc3nc2-c2ccccc2)cc1)C(=O)OCC (centres undefined) | < 3.70 | 3.95 | –
CC(C)(C)c1cc(C(=O)/C=C/c2ccc(C(=O)O)cc2)cc(C(C)(C)C)c1 | < 4.82 | 5.08 | –
O=c1oc2cc(O)ccc2c(O)c1Cc1c(O)c2ccc(O)cc2oc1=O | < 3.70 | 3.79 | –
CCCC(O)[C@@H](O)c1ccc2c(c1O)C(=O)c1c(OC)cccc1C2=O (some centres undefined) | – | – | inactive
COC(=O)C1=C(c2ccccc2)C(O)(c2ccccc2)C(C(=O)OC)C1=O (centres undefined) | < 3.47 | 3.68 | –
CS(=O)(=O)OCCN(CCOS(C)(=O)=O)c1ccc(C=O)cc1 | < 3.70 | 6.32 | –

SMILES | pEC50 | pIC50 | outcome
N#Cc1cc2c(n(NS(=O)(=O)c3ccccc3)c1=O)CCCC2 | < 3.70 | < 3.70 | –
O=c1[nH]c2nc3ccccc3nc2[nH]c1=O | – | < 3.70 and 3.82 | –
CC(=O)NC1(NC(C)=O)C2CC(C1Cc1ccccc1)C(C)(C)C2C (centres undefined) | < 3.14 | < 3.14 | –
Cc1cn(C2CC(N=[N+]=[N-])C(COC(=O)CCCCCCCCCCCOc3ccccc3)O2)c(=O)[nH]c1=O (centres undefined) | 7.30 | 3.99 | –
Cc1nc2ccccc2c(=O)n1-c1nc2ccccc2s1 | < 3.70 | 4.50 | –
O=c1cc2c(Cl)cccc2n[nH]1 | < 3.71 | < 3.71 | –
CC1(N2CCOCC2)CC2C(=[N+]1[O-])CCC/C2=N/O (centres undefined) | < 3.70 | < 3.70 | –
COC(=O)c1ccccc1N1C(=O)Cc2ccccc2C1=O | – | – | inactive
CCN(CC)Cc1cc(O)c(CN(CC)CC)cc1O | < 3.05 | 4.14 | –
Cc1ncc([N+](=O)[O-])n1CCNS(=O)(=O)CCCn1ncnc1[N+](=O)[O-] | < 3.70 | < 3.70 | –
O=C(O)CCC(NC(=O)c1ccc(Nc2cnc3ccc(C(F)(F)F)cc3n2)cc1)C(=O)O (centres undefined) | < 3.70 | < 3.70 | –
COC1/C=C\OC2(C)Oc3c(C)c(O)c4c(O)c(cc(OCC(=O)N(C)Cc5ccccc5)c4c3C2=O)NC(=O)/C(C)=C\C=C/C(C)C(O)C(C)C(O)C(C)C(OC(C)=O)C1C (centres undefined) | < 3.70 | 4.40 | –
COC(=O)C1=C(C)NC2=C(C(=O)CCC2)C1CCSC (centres undefined) | – | – | inactive
COC(O)C(=O)c1c2c(cc3c1CCC3)CCC2 (centres undefined) | < 3.70 | 3.76 | –
Nc1nc(NCC2(CO)CC2)cc(=O)[nH]1 | < 3.70 | < 3.70 | –
COC(=O)c1ccccc1C1CN=NC12Cc1ccc(C)cc1C2=O (centres undefined) | < 3.70 | 4.20 | –
NC(=O)c1ncn(CCCCCO)c1N | < 3.70 | < 3.70 | –
COc1cc(/C=C\C(=O)O)ccc1O | < 3.70 | < 3.70 | –
CN(C(=O)C1=CCCCCC1)c1ccccc1I | < 3.70 | 4.41 | –
Cc1cccc(C(C)(C)C)c1NC(=O)CCc1n[nH]c(=S)o1 | < 3.11 | 3.16 | –
CC(=O)Nc1cc(NC(C)=O)c(N=O)c(NC(C)=O)n1 | – | – | inactive
O=C(O)c1ccc(Nc2nc3ccc(C(F)(F)F)cc3nc2C(=O)O)cc1 | < 3.70 | < 3.70 | –
CCCCCC#CC1OC12CCCCC2 (centres undefined) | < 3.90 | < 3.90 | –

SMILES | pEC50 | pIC50 | outcome
O/N=C(\CC(O)(C(F)(F)F)C(F)(F)F)c1cccs1 | < 3.70 | < 4.00 | –
COc1ccc(C2SC(N)=Nc3c2c(C)nn3C(=O)Cc2ccccc2)cc1 (centres undefined) | 4.04 | 3.45 | –
CCOC(=O)/C=C(/c1cc(C)[nH]c1C)N(CC)CC | < 3.70 | < 3.70 | –
NC(=S)NN=C1CSSC1 | < 3.70 | 4.93 | –
CC(=O)N/N=C(/C)c1cccs1 | < 3.70 | < 3.70 | –
C[C@@H](c1ccccc1)n1c(N)c(C#N)c2ccc([N+](=O)[O-])cc2c1=O | < 3.70 | 4.91 | –
Cc1ccc(N2C(=O)C3c4[nH]c5ccccc5c4C4CCC(C(C)(C)C)CC4C3C2=O)cc1 (centres undefined) | < 3.70 | 4.45 | –
OCC(O)COc1ccc(F)cc1 (centres undefined) | < 2.87 | < 2.87 | –
N#Cc1cc(Sc2ccc(N)c(C#N)c2)ccc1N | < 3.70 | 4.96 | –
CCN(CC)CCCNc1nccc2c(C)c3[nH]c4ccncc4c(=O)c3cc12 | < 3.76 | 5.97 | –
CC(=O)Nc1ccc(S2=Nc3ccccc3S2)cc1 (centres undefined) | < 4.31 | 4.79 | –
COC1/C=C/OC2(C)Oc3c(C)c(O)c4c(O)c(c(/C=N/NC5CCCCCCCCCCCCCC5)c(O)c4c3C2=O)NC(=O)/C(C)=C\C=C\C(C)C(O)C(C)C(O)C(C)C(OC(C)=O)C1C (centres undefined) | < 3.70 | 4.98 | –
Cc1ccc(S(=O)(=O)N2CCC(C(=O)O)=Cc3c2[nH]c(=O)n(-c2ccccc2)c3=O)cc1 | < 3.54 | < 3.54 | –
O=C(Cc1ccccc1)NN1C(=O)/C(=C\c2cccc(O)c2)SC1=Nc1ccccc1 | < 3.80 | 3.99 | –
O=[N+]([O-])c1ccc(N=Nc2ccc(O)c3c(O)cc(S(=O)(=O)O)cc23)cc1S(=O)(=O)O | < 4.00 | < 4.00 | –
CC1=C(C(=O)Nc2ccccc2)C(c2ccc(C(C)C)cc2)C(C(=O)Nc2ccccc2)=C(C)N1 | – | – | inactive
CC[C@@H](CCCC[C@@H]1CC[C@H]2CC(=O)C[C@@H]12)OC | < 3.70 | 3.73 | –
c1ccc(N=C2c3ccsc3C(=Nc3ccccc3)c3ccsc32)cc1 | < 3.70 | 5.60 | –
CC(C)(C)n1c(=O)n(C(=O)C(Cl)(Cl)Cl)n(C(=O)C(Cl)(Cl)Cl)c1=O | < 3.70 | < 3.70 | –
COC(=O)/C(C#N)=C(\Nc1ccccc1)N1CCOCC1 | < 3.70 | < 3.70 | –
